Measurements as given in PubChem BioAssay (NCI).
Values joined by “and” are separate entries in the source; they are usually repeats but may differ in a detail not shown here. Equal values may be shown once.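 The compound was tested at five concentrations on cells cultured in 96-well plates, with a 48-hour exposure period. GI50: concentration for 50% inhibition of growth. Definition used: TGI = concentration required for complete inhibition of growth.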

Columns and labels:
Assay in all cases: inhibition of tumour cell growth, NCI panel, 48 h
OVCAR-4 ovarian = system: OVCAR-4 ovarian
NCI-H226 lung = system: NCI-H226 lung
TK-10 renal = system: TK-10 renal
MALME-3M melanoma = system: MALME-3M melanoma
HT29 colon = system: HT29 colon
SN12C renal = system: SN12C renal
LOX IMVI melanoma = system: LOX IMVI melanoma
HCT-116 colon = system: HCT-116 colon
786-0 renal = system: 786-0 renal
SK-OV-3 ovarian = system: SK-OV-3 ovarian
SK-MEL-28 melanoma = system: SK-MEL-28 melanoma
NCI-H460 lung = system: NCI-H460 lung
SK-MEL-2 melanoma = system: SK-MEL-2 melanoma
KM12 colon = system: KM12 colon
ACHN renal = system: ACHN renal
SW-620 colon = system: SW-620 colon
EKVX NSCLC = system: EKVX NSCLC
A549 NSCLC = system: A549 NSCLC
SNB-78 CNS = system: SNB-78 CNS
RXF 393 renal = system: RXF 393 renal
OVCAR-3 ovarian = system: OVCAR-3 ovarian
CAKI-1 renal = system: CAKI-1 renal
HL-60(TB) leukemia = system: HL-60(TB) leukemia
UACC-257 melanoma = system: UACC-257 melanoma
NCI-H23 lung = system: NCI-H23 lung
SNB-75 CNS = system: SNB-75 CNS
MOLT-4 leukemia = system: MOLT-4 leukemia
OVCAR-8 ovarian = system: OVCAR-8 ovarian
U251 CNS = system: U251 CNS
HOP-18 NSCLC = system: HOP-18 NSCLC
HCC-2998 colon = system: HCC-2998 colon
UACC-62 melanoma = system: UACC-62 melanoma
SF-295 CNS = system: SF-295 CNS
M14 melanoma = system: M14 melanoma
HCT-15 colon = system: HCT-15 colon
LXFL 529 NSCLC = system: LXFL 529 NSCLC
SF-268 CNS = system: SF-268 CNS
RXF-631 renal = system: RXF-631 renal
XF 498 CNS = system: XF 498 CNS
CCRF-CEM leukemia = system: CCRF-CEM leukemia
DLD-1 colon = system: DLD-1 colon
M19-MEL melanoma = system: M19-MEL melanoma
KM20L2 colon = system: KM20L2 colon
SR leukemia = system: SR leukemia
HOP-92 NSCLC = system: HOP-92 NSCLC
K-562 leukemia = system: K-562 leukemia
HOP-62 NSCLC = system: HOP-62 NSCLC
NCI-H522 lung = system: NCI-H522 lung
IGROV1 ovarian = system: IGROV1 ovarian
SNB-19 CNS = system: SNB-19 CNS
SF-539 CNS = system: SF-539 CNS
UO-31 renal = system: UO-31 renal
RPMI-8226 leukemia = system: RPMI-8226 leukemia
OVCAR-5 ovarian = system: OVCAR-5 ovarian
COLO 205 colon = system: COLO 205 colon
DMS 114 small cell lung = system: DMS 114 small cell lung
SK-MEL-5 melanoma = system: SK-MEL-5 melanoma
DMS 273 small cell lung = system: DMS 273 small cell lung

CC1CCC2c3c([nH]c4ccccc34)C3C(=O)N(c4ccccc4)C(=O)C3C2C1 (configuration not stated)
TGI (OVCAR-4 ovarian): > 250 µM | GI50 (NCI-H226 lung): 62.3 µM | TGI (NCI-H226 lung): 96.4 µM and 161 µM | GI50 (TK-10 renal): 45.5 µM | TGI (TK-10 renal): 67.5 µM and 181 µM | TGI (MALME-3M melanoma): 215 µM | TGI (HT29 colon): > 250 µM | TGI (SN12C renal): > 250 µM | GI50 (LOX IMVI melanoma): 153 µM | TGI (LOX IMVI melanoma): > 250 µM | TGI (HCT-116 colon): > 250 µM | GI50 (786-0 renal): 77.6 µM | TGI (786-0 renal): 40.6 µM and > 250 µM | GI50 (SK-OV-3 ovarian): 13.2 µM | TGI (SK-OV-3 ovarian): 28.5 µM and 99.6 µM | TGI (SK-MEL-28 melanoma): > 250 µM | TGI (NCI-H460 lung): > 250 µM | TGI (SK-MEL-2 melanoma): 91.4 µM | TGI (KM12 colon): > 250 µM | GI50 (ACHN renal): 47.9 µM | TGI (ACHN renal): 224 µM | TGI (SW-620 colon): > 250 µM | TGI (EKVX NSCLC): > 250 µM | GI50 (A549 NSCLC): > 250 µM | TGI (A549 NSCLC): > 250 µM | GI50 (SNB-78 CNS): 35.2 µM | TGI (SNB-78 CNS): 42.2 µM and > 250 µM | TGI (RXF 393 renal): 33.7 µM | GI50 (OVCAR-3 ovarian): > 250 µM | TGI (OVCAR-3 ovarian): > 250 µM | TGI (CAKI-1 renal): > 250 µM | TGI (HL-60(TB) leukemia): > 250 µM | TGI (UACC-257 melanoma): > 250 µM | GI50 (NCI-H23 lung): 30.3 µM | TGI (NCI-H23 lung): > 250 µM | GI50 (SNB-75 CNS): 12.1 µM | GI50 (MOLT-4 leukemia): 44.7 µM | TGI (MOLT-4 leukemia): 95.5 µM and 99.1 µM | GI50 (OVCAR-8 ovarian): > 250 µM | TGI (OVCAR-8 ovarian): > 250 µM | GI50 (U251 CNS): 37.5 µM | TGI (U251 CNS): > 250 µM | TGI (HOP-18 NSCLC): 69.9 µM | TGI (HCC-2998 colon): > 250 µM | GI50 (UACC-62 melanoma): 22.7 µM | TGI (UACC-62 melanoma): 82.2 µM and > 250 µM | GI50 (SF-295 CNS): 66.3 µM | TGI (SF-295 CNS): > 250 µM | GI50 (M14 melanoma): 160 µM | TGI (M14 melanoma): > 250 µM | TGI (HCT-15 colon): > 250 µM | TGI (LXFL 529 NSCLC): > 250 µM | GI50 (SF-268 CNS): 165 µM | TGI (SF-268 CNS): 97.9 µM and > 250 µM | TGI (RXF-631 renal): > 250 µM | TGI (XF 498 CNS): 7.55 µM | GI50 (CCRF-CEM leukemia): 194 µM | TGI (CCRF-CEM leukemia): 42 µM and > 250 µM | TGI (DLD-1 colon): > 250 µM | TGI (M19-MEL melanoma): > 250 µM | TGI (KM20L2 colon): > 250 µM | GI50 (SR leukemia): > 250 µM | TGI (SR leukemia): > 250 µM | TGI (HOP-92 NSCLC): 56.8 µM | GI50 (K-562 leukemia): 54.8 µM | TGI (K-562 leukemia): 202 µM | TGI (HOP-62 NSCLC): 92 µM | TGI (NCI-H522 lung): > 250 µM | GI50 (IGROV1 ovarian): 38.2 µM | TGI (IGROV1 ovarian): 57 µM and 130 µM | GI50 (SNB-19 CNS): 69.2 µM | TGI (SNB-19 CNS): > 250 µM | GI50 (SF-539 CNS): 34 µM | TGI (SF-539 CNS): 27.6 µM and > 250 µM | GI50 (UO-31 renal): 117 µM | TGI (UO-31 renal): > 250 µM

COc1ccc2nc(-c3ccc(O)cc3)ccc2c1
TGI (OVCAR-4 ovarian): > 100 µM | TGI (NCI-H226 lung): > 100 µM | TGI (TK-10 renal): > 100 µM | TGI (MALME-3M melanoma): > 100 µM | TGI (HT29 colon): > 100 µM | TGI (SN12C renal): > 100 µM | TGI (RPMI-8226 leukemia): > 100 µM | TGI (LOX IMVI melanoma): > 100 µM | TGI (HCT-116 colon): > 100 µM | TGI (786-0 renal): > 100 µM | TGI (SK-OV-3 ovarian): > 100 µM | TGI (SK-MEL-28 melanoma): > 100 µM | TGI (NCI-H460 lung): > 100 µM | TGI (KM12 colon): > 100 µM | TGI (OVCAR-5 ovarian): > 100 µM | TGI (ACHN renal): > 100 µM | TGI (SW-620 colon): > 100 µM | TGI (EKVX NSCLC): > 100 µM | TGI (A549 NSCLC): > 100 µM | TGI (SNB-78 CNS): > 100 µM | TGI (RXF 393 renal): > 100 µM | TGI (OVCAR-3 ovarian): > 100 µM | TGI (HL-60(TB) leukemia): > 100 µM | TGI (UACC-257 melanoma): > 100 µM | TGI (NCI-H23 lung): > 100 µM | TGI (SNB-75 CNS): > 100 µM | TGI (MOLT-4 leukemia): > 100 µM | TGI (OVCAR-8 ovarian): > 100 µM | TGI (COLO 205 colon): > 100 µM | TGI (HOP-18 NSCLC): > 100 µM | TGI (HCC-2998 colon): > 100 µM | TGI (UACC-62 melanoma): > 100 µM | TGI (SF-295 CNS): > 100 µM | TGI (M14 melanoma): > 100 µM | TGI (LXFL 529 NSCLC): > 100 µM | TGI (DMS 114 small cell lung): > 100 µM | TGI (SK-MEL-5 melanoma): > 100 µM | TGI (CCRF-CEM leukemia): > 100 µM | TGI (DLD-1 colon): > 100 µM | TGI (M19-MEL melanoma): > 100 µM | TGI (KM20L2 colon): > 100 µM | TGI (SR leukemia): > 100 µM | TGI (HOP-92 NSCLC): > 100 µM | TGI (K-562 leukemia): > 100 µM | TGI (HOP-62 NSCLC): > 100 µM | TGI (NCI-H522 lung): > 100 µM | TGI (IGROV1 ovarian): > 100 µM | TGI (SNB-19 CNS): > 100 µM | TGI (SF-539 CNS): > 100 µM | TGI (UO-31 renal): > 100 µM

Cc1csc(CCC(N)C(=O)O)n1 (configuration not stated)
TGI (NCI-H226 lung): > 100 µM | TGI (TK-10 renal): > 100 µM | TGI (MALME-3M melanoma): > 100 µM | TGI (HT29 colon): > 100 µM | TGI (SN12C renal): > 100 µM | TGI (RPMI-8226 leukemia): > 100 µM | TGI (LOX IMVI melanoma): > 100 µM | TGI (HCT-116 colon): > 100 µM | TGI (786-0 renal): > 100 µM | TGI (SK-OV-3 ovarian): > 100 µM | TGI (SK-MEL-28 melanoma): > 100 µM | TGI (NCI-H460 lung): > 100 µM | TGI (KM12 colon): > 100 µM | TGI (ACHN renal): > 100 µM | TGI (SW-620 colon): > 100 µM | TGI (EKVX NSCLC): > 100 µM | TGI (A549 NSCLC): > 100 µM | TGI (SNB-78 CNS): > 100 µM | TGI (RXF 393 renal): > 100 µM | TGI (OVCAR-3 ovarian): > 100 µM | TGI (CAKI-1 renal): > 100 µM | TGI (UACC-257 melanoma): > 100 µM | TGI (NCI-H23 lung): > 100 µM | TGI (SNB-75 CNS): > 100 µM | TGI (MOLT-4 leukemia): > 100 µM | TGI (OVCAR-8 ovarian): > 100 µM | TGI (U251 CNS): > 100 µM | TGI (COLO 205 colon): > 100 µM | TGI (HOP-18 NSCLC): > 100 µM | TGI (DMS 273 small cell lung): > 100 µM | TGI (HCC-2998 colon): > 100 µM | TGI (UACC-62 melanoma): > 100 µM | TGI (SF-295 CNS): > 100 µM | TGI (M14 melanoma): > 100 µM | TGI (HCT-15 colon): > 100 µM | TGI (LXFL 529 NSCLC): > 100 µM | TGI (SK-MEL-5 melanoma): > 100 µM | TGI (CCRF-CEM leukemia): > 100 µM | TGI (DLD-1 colon): > 100 µM | TGI (M19-MEL melanoma): > 100 µM | TGI (HOP-92 NSCLC): > 100 µM | TGI (K-562 leukemia): > 100 µM | TGI (NCI-H522 lung): > 100 µM | TGI (IGROV1 ovarian): > 100 µM | TGI (SF-539 CNS): > 100 µM | TGI (UO-31 renal): > 100 µM
